# Measured values: patent US20050196385A1, “Methods for producing gamma delta t cells” (Innate Pharama, priority 2002, published 2005)
# System: gamma 9 delta 2 T cells
# Assay: TNF release test after BrHPP stimulation
# Format: cell-based, human
# Conditions: for TNF alpha production (pg/ml) on 25,000 cells: 3 μM BrHPP, 24 hours, day 21; for Pg/ml of alpha TNF produced by 25 000 cells: cells formulated in HSA 4%, triplicate means
# Method: Different tests were carried out on the cells obtained to evaluate their functional activity. In particular, said tests concerned the cytotoxic activity of the cells and their production of TNF. • Cytotoxicity test. For this test, the target cells were isotopically labelled with ^51Cr (10 μl of ^51Cr/1 million target cells in 24-well plates), then incubated for 1 hour at 37° C. The cells were distributed (in duplicate) at a rate of 3000 cells per well in RPMI/10% FCS (50 μl), and spontaneous and maximum release of ^51Cr were determined. Effector cells (gamma delta T cells of the invention) were then added (50 μl in RPMI/10% FCS) to each target, at the following effector/target (E/T) ratios: 30/1, 3/1, 0.3/1, and incubated for 3 to 4 hours at 37° C. Cytotoxic activity (lysis of target cells) was determined by measuring the released radioactivity on 25 μl of supernatant in a β plate counter. • TNF release test. Cells were washed twice in RPMI then cultured in 96-well plates in RPMI/10% FCS in the presence of 3 μM BrHPP for 24 hours. TNF was assayed in the supernatant using the Beckman Coulter Kit Immunotech, ref. IM 11121. IC—Results Choice of Medium
# The formulated cell product was tested for functionality by the TNF release test at different time points to evaluate its stability.
smiles,measurement,setting,value
"CC(O)(CBr)CCOP(=O)(O)OP(=O)(O)O (stereo not shown) [BrHPP, 3-(bromomethyl)-3-butanol-1-yl-diphosphate]","TNF alpha production (pg/ml) on 25,000 cells",cells of donor D623 from fresh MNC,1332.7 pg/mL
same,"TNF alpha production (pg/ml) on 25,000 cells",cells of donor D623 from frozen MNC,1442.36 pg/mL
same,"TNF alpha production (pg/ml) on 25,000 cells",cells of donor D711 from fresh MNC,903.3 pg/mL
same,"TNF alpha production (pg/ml) on 25,000 cells",cells of donor D711 from frozen MNC,1336.16 pg/mL
same,"TNF alpha production (pg/ml) on 25,000 cells",cells of donor D762 from fresh MNC,782.08 pg/mL
same,"TNF alpha production (pg/ml) on 25,000 cells",cells of donor D762 from frozen MNC,973.7 pg/mL
same,Pg/ml of alpha TNF produced by 25 000 cells,T = 2 h after formulation,381.358 pg/mL
same,Pg/ml of alpha TNF produced by 25 000 cells,T = 4 h after formulation,359.624 pg/mL
same,Pg/ml of alpha TNF produced by 25 000 cells,T = 8 h after formulation,327.31 pg/mL
same,Pg/ml of alpha TNF produced by 25 000 cells,T = 22 h after formulation,127.56 pg/mL
